Source: patent US10112937B2, “P2X7 modulators and methods of use” (Janssen Pharmaceutica NV, priority 2013, dated 2018)
pIC50, pKi: −log10 of the molar value.

Experiments:
[1] = biological target: T1, human P2X7 (Homo sapiens (Human), UniProt Q99572); test: P2X7 antagonism in human PBMCs (IL-1β release after LPS + Bz-ATP, ELISA); assay type: cell-based; settings: human PBMCs
[2] = biological target: T1, human P2X7; test: Ca2+ flux (FLIPR) in 1321N1 cells expressing recombinant human P2X7; assay type: cell-based;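 further: cells loaded with Calcium-4 dye, preincubated with test compound for 30 min, fluorescence change read 180 s after agonist addition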
[3] = biological target: rat P2X7 (Rattus norvegicus (Rat), UniProt Q64663); test: Ca2+ flux (FLIPR) in 1321N1 cells expressing recombinant rat P2X7; assay type: cell-based;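 further: Calcium-4 dye fluorescence change read 180 s after agonist addition, with cells preincubated 30 min with compound and dye in 96-well plates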
Experimental: P2X7 Antagonism in Recombinant Human P2X7 Cells or Recombinant Rat P2X7 Cells: (a) Ca^2+ Flux and (b) Radioligand Binding
1321N1 cells expressing the recombinant human or rat P2X7 channel was cultured in HyQ DME/(HyClone/Dulbecco's Modified Eagle Medium) high glucose supplemented with 10% Fetal Bovine Serum (FBS) and appropriate selection marker. Cells were seeded at a density of 25000 cells/well (96-well clear bottom black walled plates) in 100 μl volume/well. On the day of the experiment, cell plates were washed with assay buffer, containing (in mM): 130 NaCl, 2 KCl, 1 CaCl2, 1 MgCl2, 10 HEPES, 5 glucose; pH 7.40 and 300 mOs. After the wash, cells were loaded with the Calcium-4 dye (Molecular Device) and incubated in the dark for 60 minutes. Test compounds were prepared at 250× the test concentration in neat DMSO. Intermediate 96-well compound plates were prepared by transferring 1.2 μL of the compound into 300 μL of assay buffer. A further 3× dilution occurred when transferring 50 μL/well of the compound plate to 100 μL/well in the cell plate. Cells were incubated with test compounds and dye for 30 minutes. […] The fluorescence change was measured 180 seconds after adding the agonist.

[4] = biological target: T1, human P2X7; test: Radioligand binding ([3H]A-804598), human P2X7-1321N1 cell membranes
Experimental: human or rat P2X7-1321N1 cells were collected and frozen @−80° C. On the day of the experiment, cell membrane preparations were made according to standard published methods. […] The assay was terminated by filtration (GF/B filters pre-soaked with 0.3% PEI) and washed with washing buffer (Tris-HCl 50 mM). The IC50 generated in the binding assay was corrected for tracer concentration and affinity of the tracer to derive at the affinity (Ki) of the test compounds. […] For analysis, each concentration point is averaged from triplicate values and the averaged values are plotted on Graphpad Prism.

[5] = 1321N1 cells, recombinant human P2X7, 250 μM BzATP
[6] = 1321N1 cells, recombinant rat P2X7, 250 μM BzATP
[7] = human P2X7-1321N1 membranes, tritiated A-804598
[8] = 10 μM test compound, LPS + Bz-ATP
[9] = Ca2+ flux, 250 μM BzATP, human P2X7 1321N1 cells
[10] = Ca2+ flux, 250 μM BzATP, rat P2X7 1321N1 cells
[11] = [3H]A-804598, human P2X7-1321N1 membranes

T1 sequence (Q99572 whole entry): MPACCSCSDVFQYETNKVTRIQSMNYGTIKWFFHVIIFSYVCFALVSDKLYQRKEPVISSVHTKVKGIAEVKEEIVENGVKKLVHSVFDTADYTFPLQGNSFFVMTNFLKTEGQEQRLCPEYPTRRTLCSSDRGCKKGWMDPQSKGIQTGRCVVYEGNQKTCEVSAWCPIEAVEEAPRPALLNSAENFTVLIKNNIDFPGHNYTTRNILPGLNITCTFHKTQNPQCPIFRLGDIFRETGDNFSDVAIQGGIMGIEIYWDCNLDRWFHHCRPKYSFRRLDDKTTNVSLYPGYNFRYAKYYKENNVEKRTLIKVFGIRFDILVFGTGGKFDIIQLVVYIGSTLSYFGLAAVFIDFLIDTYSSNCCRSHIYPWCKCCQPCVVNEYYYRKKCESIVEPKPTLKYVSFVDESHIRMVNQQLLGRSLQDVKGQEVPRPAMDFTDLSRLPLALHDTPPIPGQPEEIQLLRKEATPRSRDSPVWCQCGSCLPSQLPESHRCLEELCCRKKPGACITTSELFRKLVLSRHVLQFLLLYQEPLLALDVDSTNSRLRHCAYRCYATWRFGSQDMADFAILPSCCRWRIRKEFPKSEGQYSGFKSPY
Sequence of rat P2X7 (Q64663 whole entry): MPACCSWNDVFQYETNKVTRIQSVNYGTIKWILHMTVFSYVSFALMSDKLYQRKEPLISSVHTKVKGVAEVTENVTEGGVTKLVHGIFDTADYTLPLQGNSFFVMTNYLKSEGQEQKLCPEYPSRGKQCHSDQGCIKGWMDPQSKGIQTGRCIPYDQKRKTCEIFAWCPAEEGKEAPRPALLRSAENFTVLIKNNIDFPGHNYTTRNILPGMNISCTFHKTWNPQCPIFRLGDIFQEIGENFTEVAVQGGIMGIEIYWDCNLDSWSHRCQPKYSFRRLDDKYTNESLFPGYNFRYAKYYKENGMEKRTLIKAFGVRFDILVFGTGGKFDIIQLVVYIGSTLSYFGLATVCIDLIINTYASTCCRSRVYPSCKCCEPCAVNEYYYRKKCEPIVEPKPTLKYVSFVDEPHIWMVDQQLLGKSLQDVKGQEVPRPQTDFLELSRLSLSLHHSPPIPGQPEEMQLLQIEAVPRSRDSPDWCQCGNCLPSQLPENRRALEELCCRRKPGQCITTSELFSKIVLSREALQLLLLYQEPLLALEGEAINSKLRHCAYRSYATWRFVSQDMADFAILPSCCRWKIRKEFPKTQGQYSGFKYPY

Row | SMILES | PBMC 10 μM (% control) ([1]; test compound 10 μM) | pIC50 [2, 5] | pIC50 [3, 6] | pKi [4, 7] | PBMC 10 μM (% control) [1, 8] [% control] | pIC50 [2, 9] | pIC50 [3, 10] | pKi [4, 11]
1 | Cc1c(C(=O)N2Cc3nnn(-c4ccn[nH]4)c3C[C@H]2C)cccc1C(F)(F)F (single isomer, unassigned) [Example 346, (R*)-(6-methyl-1-(1H-pyrazol-3-yl)-6,7-dihydro-1H-[1,2,3]triazolo[4,5-c]pyridin-5(4H)-yl)(2-methyl-3-(trifluoromethyl)phenyl)methanone] | −2.3 | 8.19 | 8.66 | 8.00 | – | – | – | –
2 | C[C@H]1Cc2c(nnn2-c2ccn[nH]2)CN1C(=O)c1cccc(C(F)(F)F)c1F (single isomer, unassigned) [Example 349, (S*)-(2-fluoro-3-(trifluoromethyl)phenyl)(6-methyl-1-(1H-pyrazol-5-yl)-6,7-dihydro-1H-[1,2,3]triazolo[4,5-c]pyridin-5(4H)-yl)methanone] | 0.7 | 8.57 | 8.66 | 8.10 | – | – | – | –
3 | Cc1cc(-n2nnc3c2CCN(C(=O)c2ccnc(C(F)(F)F)c2F)[C@@H]3C)ncc1F (single isomer, unassigned) [Example 368, (R*)-(3-fluoro-2-(trifluoromethyl)pyridin-4-yl)(1-(5-fluoro-4-methylpyridin-2-yl)-4-methyl-6,7-dihydro-1H-[1,2,3]triazolo[4,5-c]pyridin-5(4H)-yl)methanone] | −2.3 | 7.65 | 6.63 | 7.40 | – | – | – | –
4 | Cc1c(C(=O)N2Cc3nnn(-c4cc[nH]n4)c3CC2C)cccc1C(F)(F)F (stereo not drawn) [Example 154, (6-methyl-1-(1H-pyrazol-3-yl)-6,7-dihydro-1H-[1,2,3]triazolo[4,5-c]pyridin-5(4H)-yl)(2-methyl-3-(trifluoromethyl)phenyl)methanone] | −0.6 | – | – | 8.10 | – | – | – | –
5 | C[C@H]1Cc2c(nnn2-c2ncc(F)cn2)CN1C(=O)c1ccc(Cl)cc1F [Example 156, (S)-(4-chloro-2-fluorophenyl)(1-(5-fluoropyrimidin-2-yl)-6-methyl-6,7-dihydro-1H-[1,2,3]triazolo[4,5-c]pyridin-5(4H)-yl)methanone] | 1.8 | – | – | 8.20 | – | – | – | –
6 | Cc1cc(-n2nnc3c2CCN(C(=O)c2ccnc(C(F)(F)F)c2F)C3C)ncc1F (stereo not drawn) [Example 367, (3-fluoro-2-(trifluoromethyl)pyridin-4-yl)(1-(5-fluoro-4-methylpyridin-2-yl)-4-methyl-6,7-dihydro-1H-[1,2,3]triazolo[4,5-c]pyridin-5(4H)-yl)methanone] | 0.9 | 7.12 | 5.67 | 6.94 | – | – | – | –
7 | Cc1cc(-n2nnc3c2CCN(C(=O)c2ccnc(C(F)(F)F)c2Cl)C3C)ncc1F (stereo not drawn) [Example 370, (3-chloro-2-(trifluoromethyl)pyridin-4-yl)(1-(5-fluoro-4-methylpyridin-2-yl)-4-methyl-6,7-dihydro-1H-[1,2,3]triazolo[4,5-c]pyridin-5(4H)-yl)methanone] | −2.2 | 7.22 | 6.59 | 7.20 | – | – | – | –

Continued, values first:

Row | PBMC 10 μM (% control) ([1]; test compound 10 μM) | pIC50 [2, 5] | pIC50 [3, 6] | pKi [4, 7] | PBMC 10 μM (% control) [1, 8] [% control] | pIC50 [2, 9] | pIC50 [3, 10] | pKi [4, 11] | SMILES
8 | 3.8 | 6.95 | 7.32 | 6.70 | – | – | – | – | C[C@@H]1c2nnn(-c3cccc(C(F)(F)F)n3)c2CCN1C(=O)c1cccc(C(F)(F)F)c1Cl (single isomer, unassigned) [Example 379, (R*)-(2-chloro-3-(trifluoromethyl)phenyl)(4-methyl-1-(6-(trifluoromethyl)pyridin-2-yl)-6,7-dihydro-1H-[1,2,3]triazolo[4,5-c]pyridin-5(4H)yl)methanone]
9 | 14.4 | 8.44 | 7.33 | 8.40 | – | – | – | – | Cc1ccnc(-n2nnc3c2CCN(C(=O)c2cccc(Cl)c2Cl)[C@H]3C)n1 (single isomer, unassigned) [Example 392, (S*)-(2,3-dichlorophenyl)(4-methyl-1-(4-methylpyrimidin-2-yl)-6,7-dihydro-1H-[1,2,3]triazolo[4,5-c]pyridin-5(4H)-yl)methanone]
10 | −0.1 | 7.10 | 6.86 | 6.80 | – | – | – | – | CC1c2nnn(-c3cccc(C(F)(F)F)n3)c2CCN1C(=O)c1cccc(C(F)(F)F)c1Cl (stereo not drawn) [Example 378, (2-chloro-3-(trifluoromethyl)phenyl)(4-methyl-1-(6-(trifluoromethyl)pyridin-2-yl)-6,7-dihydro-1H-[1,2,3]triazolo[4,5-c]pyridin-5(4H)-yl)methanone]
11 | 8.5 | 7.29 | 4.96 | 7.05 | – | – | – | – | CC1c2nnn(-c3ncc[nH]3)c2CCN1C(=O)c1cccc(C(F)(F)F)c1Cl (stereo not drawn) [Example 393, (1-(1H-imidazol-2-yl)-4-methyl-6,7-dihydro-1H-[1,2,3]triazolo[4,5-c]pyridin-5(4H)-yl)(2-chloro-3-(trifluoromethyl)phenyl)methanone]
12 | – | – | – | – | −4.0 | 7.15 | 6.80 | 7.44 | CC1c2n[nH]c(-c3ccc(F)cn3)c2CCN1C(=O)c1cccc(C(F)(F)F)c1Cl (stereo not drawn) [Example 430, (2-chloro-3-(trifluoromethyl)phenyl)(3-(5-fluoropyridin-2-yl)-7-methyl-4,5-dihydro-2H-pyrazolo[3,4-c]pyridin-6(7H)-yl)methanone]
13 | – | – | – | – | −6.4 | 8.22 | 6.49 | 7.91 | CC1c2n[nH]c(-c3ncccn3)c2CCN1C(=O)c1cccc(Cl)c1Cl (stereo not drawn) [Example 431, (2,3-dichlorophenyl)(7-methyl-3-(pyrimidin-2-yl)-4,5-dihydro-2H-pyrazolo[3,4-c]pyridin-6(7H)-yl)methanone]
14 | – | – | – | – | 0.3 | – | 7.48 | 7.80 | CC1c2n[nH]c(-c3ccccn3)c2CCN1C(=O)c1cccc(C(F)(F)F)c1Cl (stereo not drawn) [Example 432, (2-chloro-3-(trifluoromethyl)phenyl)(7-methyl-3-(pyridin-2-yl)-4,5-dihydro-2H-pyrazolo[3,4-c]pyridin-6(7H)-yl)methanone]
15 | – | – | – | – | −3.6 | 7.72 | – | 7.80 | CC1c2n[nH]c(-c3cnccn3)c2CCN1C(=O)c1cccc(Cl)c1Cl (stereo not drawn) [Example 433, (2,3-dichlorophenyl)(7-methyl-3-(pyrazin-2-yl)-4,5-dihydro-2H-pyrazolo[3,4-c]pyridin-6(7H)-yl)methanone]
16 | – | – | – | – | −11.3 | 7.23 | – | 7.00 | CC1c2n[nH]c(-c3ccc(F)cc3)c2CCN1C(=O)c1cccc(Cl)c1Cl (stereo not drawn) [Example 435, (2,3-dichlorophenyl)(3-(4-fluorophenyl)-7-methyl-4,5-dihydro-2H-pyrazolo[3,4-c]pyridin-6(7H)-yl)methanone]
17 | – | – | – | – | −3.4 | 5.95 | < 5.00 | – | CC1c2n[nH]c(-c3ccnn3C)c2CCN1C(=O)c1cccc(Cl)c1Cl (stereo not drawn) [Example 436, (2,3-dichlorophenyl)(7-methyl-3-(1-methyl-1H-pyrazol-5-yl)-4,5-dihydro-2H-pyrazolo[3,4-c]pyridin-6(7H)-yl)methanone]
